Source: ChEMBL document CHEMBL1201862, “PubChem BioAssay data set” (2004)
Activity calls are given as the source filed them.

Tests used:
Nonstructural protein 1 = Nonstructural protein 1 (Influenza A virus, UniProt Q194T2); type: functional, Influenza A virus (A/California/07/2009(H1N1))
[1] = target: Heat shock protein HSP 90-alpha (Homo sapiens, UniProt P07900); type: functional, organism-based
[2] = target: Botulinum neurotoxin type F (Clostridium botulinum, UniProt P30996); assay: High-throughput multiplex microsphere dose response for inhibitors of toxin protease, specifically Botulinum neurotoxin light chain F protease, compounds from Cherry Pick 02.; type: functional; settings: read-out: EC50_MICROM
[3] = target: T1, Microphthalmia-associated transcription factor (Homo sapiens, UniProt O75030); assay: reducers of TRPM1 reporter luminescence, concentration series – cell-based, SK-MEL-5, cherry-picked, set 3, MITF inhibitor project, dose response (AID 493073); type: functional;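 also: SK-MEL-5 melanoma cells with luciferase driven by the MITF target TRPM1 promoter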
T1 sequence (O75030 whole entry): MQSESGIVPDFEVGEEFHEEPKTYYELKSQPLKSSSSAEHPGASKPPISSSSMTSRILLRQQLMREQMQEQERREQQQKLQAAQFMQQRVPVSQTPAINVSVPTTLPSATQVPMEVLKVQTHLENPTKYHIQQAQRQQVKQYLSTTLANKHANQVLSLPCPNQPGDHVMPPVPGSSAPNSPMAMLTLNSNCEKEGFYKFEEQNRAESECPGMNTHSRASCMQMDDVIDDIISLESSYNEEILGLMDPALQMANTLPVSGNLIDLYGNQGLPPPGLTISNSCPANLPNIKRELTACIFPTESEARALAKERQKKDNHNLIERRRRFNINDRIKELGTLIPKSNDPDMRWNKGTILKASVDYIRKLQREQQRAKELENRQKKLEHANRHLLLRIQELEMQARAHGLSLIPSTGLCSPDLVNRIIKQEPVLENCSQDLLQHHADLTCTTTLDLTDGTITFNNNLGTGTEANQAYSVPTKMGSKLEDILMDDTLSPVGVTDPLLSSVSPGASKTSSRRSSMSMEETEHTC

HEK293 = assay: EBV LMP1 TES2 canonical NF-kB signalling blockers – cell-based, HEK293, luciferase, cherry-pick, dose response (AID 588343); type: functional; settings: Homo sapiens
Lethal factor = Lethal factor (Bacillus anthracis, UniProt P15917); assay: High-throughput multiplex microsphere dose response for inhibitors of toxin protease, specifically Lethal Factor protease, compounds from Cherry Pick 02.; type: functional; settings: read-out: EC50_MICROM
[4] = target: Botulinum neurotoxin type A (Clostridium botulinum (strain Hall / ATCC 3502 / NCTC 13319 / Type A), UniProt P0DPI1); assay: High-throughput multiplex microsphere dose response for inhibitors of toxin protease, specifically Botulinum neurotoxin light chain A protease, compounds from Cherry Pick 02.; type: functional; settings: read-out: EC50_MICROM
Hexokinase HKDC1 = target: T2, Hexokinase HKDC1 (Homo sapiens, UniProt Q2TB90); assay: activation of HKDC1 glucose phosphorylation – biochemical, W721R variant, dose response (AID 504730); type: functional
T2 sequence (Q2TB90 whole entry): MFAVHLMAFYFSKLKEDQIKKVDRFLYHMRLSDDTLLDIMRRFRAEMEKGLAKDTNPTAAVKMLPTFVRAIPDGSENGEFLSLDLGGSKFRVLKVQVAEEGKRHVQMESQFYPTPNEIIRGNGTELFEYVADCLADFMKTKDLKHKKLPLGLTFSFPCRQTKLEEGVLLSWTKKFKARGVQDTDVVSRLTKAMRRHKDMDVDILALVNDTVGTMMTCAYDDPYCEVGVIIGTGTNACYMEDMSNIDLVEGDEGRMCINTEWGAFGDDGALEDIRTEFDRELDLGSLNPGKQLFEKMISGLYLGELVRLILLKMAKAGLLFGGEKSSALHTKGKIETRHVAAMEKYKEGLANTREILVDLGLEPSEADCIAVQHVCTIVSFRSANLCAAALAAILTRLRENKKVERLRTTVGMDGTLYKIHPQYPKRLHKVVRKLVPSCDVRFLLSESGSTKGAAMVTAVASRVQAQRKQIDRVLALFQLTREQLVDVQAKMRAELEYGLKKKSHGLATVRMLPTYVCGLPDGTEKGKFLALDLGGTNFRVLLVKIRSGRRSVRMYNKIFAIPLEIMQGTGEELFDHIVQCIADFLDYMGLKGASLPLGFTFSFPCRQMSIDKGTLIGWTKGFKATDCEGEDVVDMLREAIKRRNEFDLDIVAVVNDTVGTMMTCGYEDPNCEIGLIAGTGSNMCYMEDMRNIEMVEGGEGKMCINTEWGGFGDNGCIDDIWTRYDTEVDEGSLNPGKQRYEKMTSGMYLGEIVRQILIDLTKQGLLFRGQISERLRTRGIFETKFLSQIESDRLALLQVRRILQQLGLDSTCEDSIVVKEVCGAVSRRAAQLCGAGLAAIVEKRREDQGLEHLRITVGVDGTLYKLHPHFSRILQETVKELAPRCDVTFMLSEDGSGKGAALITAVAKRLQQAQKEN

[5] = target: Latent membrane protein 1 (Human herpesvirus 4 (strain B95-8), UniProt P03230); assay: LMP1 TES1 pathway selectivity over dsRED control – imaging, HEK293T, dual-color eGFP/dsRED, cherry-picks, selectivity assay for LMP1 NF-kB inhibitor project, dose response (AID 588398); type: functional, cell-based
Hexokinase-1 = Hexokinase-1 (Homo sapiens, UniProt P19367); assay: HK1 enzyme activation by HKDC1 hits – biochemical, selectivity assay for HKDC1 activator project, dose response (AID 504762); type: functional
[6] = target: MAP/microtubule affinity-regulating kinase 3 (Homo sapiens, UniProt P27448); type: functional;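 also: MARK3 affinity measured as one member of a kinome panel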
[7] = target: Tyrosine-protein kinase BTK (Homo sapiens, UniProt Q06187); type: functional
[8] = target: Tyrosine-protein kinase JAK3 (Homo sapiens, UniProt P52333); type: functional
[9] = target: Inhibitor of nuclear factor kappa-B kinase subunit epsilon (Homo sapiens, UniProt Q14164); assay: Navigating the Kinome. Panel member name: IKBKE; type: functional
[10] = target: High affinity nerve growth factor receptor (Homo sapiens, UniProt P04629); type: functional;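 also: NTRK1 tested as one member of a kinome-wide profiling panel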
[11] = target: ALK tyrosine kinase receptor (Homo sapiens, UniProt Q9UM73); type: functional;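 also: ALK tested as one member of a kinase panel screen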
[12] = target: Fibroblast growth factor receptor 1 (Homo sapiens, UniProt P11362); type: functional
[13] = target: Dual specificity mitogen-activated protein kinase kinase 2 (Homo sapiens, UniProt P36507); assay: Navigating the Kinome. Panel member name: MAP2K2; type: functional
[14] = target: Cyclin-dependent kinase 8 (Homo sapiens, UniProt P49336); assay: Navigating the Kinome. Panel member name: CDK8; type: functional
[15] = target: Dual specificity tyrosine-phosphorylation-regulated kinase 1A (Homo sapiens, UniProt Q13627); type: functional;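 also: measured against DYRK1A as one member of a broad kinome profiling panel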
[16] = target: Mitogen-activated protein kinase 14 (Homo sapiens, UniProt Q16539); type: functional;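 also: part of a kinome-wide panel, MAPK14 entry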
[17] = target: Mitogen-activated protein kinase 9 (Homo sapiens, UniProt P45984); type: functional;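 also: value from a kinome panel profiling assay, MAPK9 panel entry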
[18] = target: Receptor-type tyrosine-protein kinase FLT3 (Homo sapiens, UniProt P36888); type: functional;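 also: FLT3 was tested as one member of a kinome-wide kinase panel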
[19] = target: Leucine-rich repeat serine/threonine-protein kinase 2 (Homo sapiens, UniProt Q5S007); type: functional;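 also: value from a broad kinome-wide panel profiling study in which LRRK2 was one of the kinases tested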
[20] = target: Dual specificity protein kinase CLK2 (Homo sapiens, UniProt P49760); type: functional
[21] = target: Macrophage-stimulating protein receptor (Homo sapiens, UniProt Q04912); assay: Navigating the Kinome. Panel member name: MST1R; type: functional
[22] = target: Glycogen synthase kinase-3 alpha (Homo sapiens, UniProt P49840); type: functional;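 also: GSK3A result taken from a broad kinome-wide kinase panel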
[23] = target: cAMP-dependent protein kinase catalytic subunit alpha (Homo sapiens, UniProt P17612); type: functional
[24] = target: Serine/threonine-protein kinase PAK 4 (Homo sapiens, UniProt O96013); type: functional;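 also: value obtained within a kinome profiling panel in which PAK4 was one of the panel members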
[25] = target: Tyrosine-protein kinase Fyn (Homo sapiens, UniProt P06241); type: functional
[26] = target: Calcium/calmodulin-dependent protein kinase type II subunit alpha (Homo sapiens, UniProt Q9UQM7); assay: Navigating the Kinome. Panel member name: CAMK2A; type: functional
[27] = target: Cyclin-dependent kinase 9 (Homo sapiens, UniProt P50750); type: functional;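 also: value from the CDK9 entry of a kinome-spanning kinase panel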
[28] = target: Vascular endothelial growth factor receptor 1 (Homo sapiens, UniProt P17948); type: functional;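 also: measured within a kinome-wide profiling panel, FLT1 as the panel member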
[29] = target: Leukocyte tyrosine kinase receptor (Homo sapiens, UniProt P29376); assay: Navigating the Kinome. Panel member name: LTK; type: functional
[30] = target: 5'-AMP-activated protein kinase catalytic subunit alpha-1 (Homo sapiens, UniProt Q13131); type: functional
[31] = target: Serine/threonine-protein kinase TBK1 (Homo sapiens, UniProt Q9UHD2); assay: Navigating the Kinome. Panel member name: TBK1; type: functional
[32] = target: Glycogen synthase kinase-3 beta (Homo sapiens, UniProt P49841); type: functional;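 also: value comes from a broad kinome profiling panel, with GSK3B as the panel member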
[33] = target: Dual specificity mitogen-activated protein kinase kinase 1 (Homo sapiens, UniProt Q02750); assay: Navigating the Kinome. Panel member name: MAP2K1; type: functional
[34] = target: Vascular endothelial growth factor receptor 2 (Homo sapiens, UniProt P35968); type: functional
[35] = target: Dual specificity protein kinase CLK4 (Homo sapiens, UniProt Q9HAZ1); type: functional
[36] = target: Macrophage colony-stimulating factor 1 receptor (Homo sapiens, UniProt P07333); type: functional;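 also: value comes from the Navigating the Kinome screening panel, CSF1R member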
[37] = target: Mitogen-activated protein kinase kinase kinase kinase 4 (Homo sapiens, UniProt O95819); type: functional
[38] = target: Death-associated protein kinase 3 (Homo sapiens, UniProt O43293); type: functional;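 also: measured as one member of a kinome-wide profiling panel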
[39] = target: Serine/threonine-protein kinase TAO1 (Homo sapiens, UniProt Q7L7X3); type: functional
[40] = target: Tyrosine-protein kinase JAK2 (Homo sapiens, UniProt O60674); type: functional;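 also: JAK2 tested as one member of a kinase panel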
[41] = target: Mitogen-activated protein kinase kinase kinase kinase 2 (Homo sapiens, UniProt Q12851); type: functional;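 also: measured as one member of a kinome-wide kinase panel, with MAP4K2 as the panel entry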
[42] = target: Mitogen-activated protein kinase kinase kinase kinase 5 (Homo sapiens, UniProt Q9Y4K4); type: functional;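 also: measured as one member of a kinome-spanning kinase panel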
[43] = target: Tyrosine-protein kinase Lck (Homo sapiens, UniProt P06239); type: functional;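 also: lck was assayed as one member of a kinase panel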
[44] = target: Insulin-like growth factor 1 receptor (Homo sapiens, UniProt P08069); assay: Navigating the Kinome. Panel member name: IGF1R; type: functional
[45] = target: Mitogen-activated protein kinase 8 (Homo sapiens, UniProt P45983); type: functional;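 also: value comes from one member of a kinome-wide kinase profiling panel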
[46] = target: Platelet-derived growth factor receptor alpha (Homo sapiens, UniProt P16234); assay: Navigating the Kinome. Panel member name: PDGFRA; type: functional
[47] = target: Serine/threonine-protein kinase pim-1 (Homo sapiens, UniProt P11309); type: functional
[48] = target: G protein-coupled receptor kinase 5 (Homo sapiens, UniProt P34947); assay: Navigating the Kinome. Panel member name: GPRK5; type: functional
[49] = target: cAMP-dependent protein kinase catalytic subunit PRKX (Homo sapiens, UniProt P51817); type: functional
[50] = target: Tyrosine-protein kinase receptor TYRO3 (Homo sapiens, UniProt Q06418); type: functional;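 also: TYRO3 value obtained as one member of a kinome-wide profiling panel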
[51] = target: Tyrosine-protein kinase ABL1 (Homo sapiens, UniProt P00519); type: functional
[52] = target: Serine/threonine-protein kinase N2 (Homo sapiens, UniProt Q16513); type: functional
Aurora kinase A = Aurora kinase A (Homo sapiens, UniProt O14965); type: functional;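 also: value from the Navigating the Kinome kinase panel profiling, panel entry STK6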

Chain of Serine/threonine-protein kinase PAK 4 (O96013 whole entry): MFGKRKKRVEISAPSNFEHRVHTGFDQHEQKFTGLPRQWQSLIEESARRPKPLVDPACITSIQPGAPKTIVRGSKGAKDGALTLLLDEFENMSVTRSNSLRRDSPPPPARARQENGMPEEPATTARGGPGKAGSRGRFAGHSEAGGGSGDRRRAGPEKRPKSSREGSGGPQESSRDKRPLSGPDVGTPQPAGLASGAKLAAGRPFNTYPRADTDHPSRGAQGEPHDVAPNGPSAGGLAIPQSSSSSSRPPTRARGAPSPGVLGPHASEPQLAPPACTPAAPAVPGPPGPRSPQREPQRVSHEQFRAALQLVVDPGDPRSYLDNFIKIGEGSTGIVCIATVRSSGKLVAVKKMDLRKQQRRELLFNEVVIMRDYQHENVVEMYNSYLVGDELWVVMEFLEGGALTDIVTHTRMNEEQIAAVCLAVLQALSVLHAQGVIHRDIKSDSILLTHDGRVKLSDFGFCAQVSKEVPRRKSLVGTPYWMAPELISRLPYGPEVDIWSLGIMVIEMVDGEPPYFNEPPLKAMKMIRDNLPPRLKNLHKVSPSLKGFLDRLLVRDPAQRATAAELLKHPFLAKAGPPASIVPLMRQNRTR
Chain of High affinity nerve growth factor receptor (P04629 whole entry): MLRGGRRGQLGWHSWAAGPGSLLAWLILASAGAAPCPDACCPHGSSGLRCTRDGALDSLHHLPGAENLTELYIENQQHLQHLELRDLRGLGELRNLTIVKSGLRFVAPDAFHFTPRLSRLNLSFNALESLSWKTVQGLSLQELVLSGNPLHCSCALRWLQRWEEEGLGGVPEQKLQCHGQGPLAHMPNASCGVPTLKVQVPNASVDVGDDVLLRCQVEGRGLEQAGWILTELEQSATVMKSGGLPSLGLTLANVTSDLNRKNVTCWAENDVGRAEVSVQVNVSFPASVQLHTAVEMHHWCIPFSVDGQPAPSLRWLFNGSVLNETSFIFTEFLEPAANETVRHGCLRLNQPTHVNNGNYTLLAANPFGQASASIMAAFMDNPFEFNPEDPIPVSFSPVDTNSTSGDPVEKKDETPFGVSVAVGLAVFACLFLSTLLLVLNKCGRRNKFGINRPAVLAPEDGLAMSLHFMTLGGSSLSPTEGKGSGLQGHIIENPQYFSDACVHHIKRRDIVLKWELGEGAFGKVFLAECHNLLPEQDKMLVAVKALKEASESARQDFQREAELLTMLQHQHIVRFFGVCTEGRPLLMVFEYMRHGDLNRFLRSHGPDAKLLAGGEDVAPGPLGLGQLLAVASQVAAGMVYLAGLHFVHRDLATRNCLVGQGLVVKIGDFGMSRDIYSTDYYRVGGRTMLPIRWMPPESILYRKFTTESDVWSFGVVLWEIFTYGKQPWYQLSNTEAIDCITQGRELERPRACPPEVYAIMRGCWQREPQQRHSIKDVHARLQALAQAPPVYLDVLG
Chain of ALK tyrosine kinase receptor (Q9UM73 whole entry): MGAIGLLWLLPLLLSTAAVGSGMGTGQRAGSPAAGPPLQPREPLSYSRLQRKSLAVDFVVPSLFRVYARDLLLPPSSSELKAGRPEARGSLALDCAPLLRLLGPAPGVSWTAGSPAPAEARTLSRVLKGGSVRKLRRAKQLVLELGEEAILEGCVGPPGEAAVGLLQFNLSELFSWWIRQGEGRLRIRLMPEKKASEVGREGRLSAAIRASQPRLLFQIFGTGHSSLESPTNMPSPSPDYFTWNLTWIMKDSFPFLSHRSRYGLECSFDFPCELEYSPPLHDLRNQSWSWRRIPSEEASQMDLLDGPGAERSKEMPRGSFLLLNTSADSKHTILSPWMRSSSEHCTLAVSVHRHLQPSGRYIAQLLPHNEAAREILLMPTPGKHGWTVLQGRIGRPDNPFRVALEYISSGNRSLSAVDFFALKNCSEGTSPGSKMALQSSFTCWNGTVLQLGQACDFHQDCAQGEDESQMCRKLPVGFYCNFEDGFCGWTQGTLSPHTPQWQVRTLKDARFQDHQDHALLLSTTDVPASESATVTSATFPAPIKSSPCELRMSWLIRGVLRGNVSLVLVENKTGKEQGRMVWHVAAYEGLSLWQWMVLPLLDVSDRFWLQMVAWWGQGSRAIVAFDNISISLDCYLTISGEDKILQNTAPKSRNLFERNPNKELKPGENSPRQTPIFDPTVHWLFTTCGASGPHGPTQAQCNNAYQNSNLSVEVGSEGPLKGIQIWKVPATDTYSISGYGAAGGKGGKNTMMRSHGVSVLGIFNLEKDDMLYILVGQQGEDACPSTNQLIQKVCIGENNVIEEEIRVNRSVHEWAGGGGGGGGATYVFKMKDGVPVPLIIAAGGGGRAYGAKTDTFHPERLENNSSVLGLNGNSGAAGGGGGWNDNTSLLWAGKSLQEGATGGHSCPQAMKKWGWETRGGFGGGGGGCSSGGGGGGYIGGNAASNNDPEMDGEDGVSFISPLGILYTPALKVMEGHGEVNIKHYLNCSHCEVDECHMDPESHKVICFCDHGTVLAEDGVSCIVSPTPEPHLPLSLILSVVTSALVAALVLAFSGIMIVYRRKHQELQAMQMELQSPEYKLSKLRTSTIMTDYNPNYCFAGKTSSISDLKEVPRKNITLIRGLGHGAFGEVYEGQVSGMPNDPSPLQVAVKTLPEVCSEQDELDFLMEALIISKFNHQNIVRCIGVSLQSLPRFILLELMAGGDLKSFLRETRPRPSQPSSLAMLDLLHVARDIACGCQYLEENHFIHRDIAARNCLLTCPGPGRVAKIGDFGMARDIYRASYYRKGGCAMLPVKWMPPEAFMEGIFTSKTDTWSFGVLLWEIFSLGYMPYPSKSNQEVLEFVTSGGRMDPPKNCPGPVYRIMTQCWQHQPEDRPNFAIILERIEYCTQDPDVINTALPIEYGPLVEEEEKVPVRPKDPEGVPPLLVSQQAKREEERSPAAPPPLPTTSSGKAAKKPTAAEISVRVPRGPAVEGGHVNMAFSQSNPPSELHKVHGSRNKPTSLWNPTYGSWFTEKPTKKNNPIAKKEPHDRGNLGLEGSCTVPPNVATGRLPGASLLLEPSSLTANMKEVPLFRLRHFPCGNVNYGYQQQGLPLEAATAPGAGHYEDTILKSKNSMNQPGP
Chain of Mitogen-activated protein kinase kinase kinase kinase 2 (Q12851 whole entry): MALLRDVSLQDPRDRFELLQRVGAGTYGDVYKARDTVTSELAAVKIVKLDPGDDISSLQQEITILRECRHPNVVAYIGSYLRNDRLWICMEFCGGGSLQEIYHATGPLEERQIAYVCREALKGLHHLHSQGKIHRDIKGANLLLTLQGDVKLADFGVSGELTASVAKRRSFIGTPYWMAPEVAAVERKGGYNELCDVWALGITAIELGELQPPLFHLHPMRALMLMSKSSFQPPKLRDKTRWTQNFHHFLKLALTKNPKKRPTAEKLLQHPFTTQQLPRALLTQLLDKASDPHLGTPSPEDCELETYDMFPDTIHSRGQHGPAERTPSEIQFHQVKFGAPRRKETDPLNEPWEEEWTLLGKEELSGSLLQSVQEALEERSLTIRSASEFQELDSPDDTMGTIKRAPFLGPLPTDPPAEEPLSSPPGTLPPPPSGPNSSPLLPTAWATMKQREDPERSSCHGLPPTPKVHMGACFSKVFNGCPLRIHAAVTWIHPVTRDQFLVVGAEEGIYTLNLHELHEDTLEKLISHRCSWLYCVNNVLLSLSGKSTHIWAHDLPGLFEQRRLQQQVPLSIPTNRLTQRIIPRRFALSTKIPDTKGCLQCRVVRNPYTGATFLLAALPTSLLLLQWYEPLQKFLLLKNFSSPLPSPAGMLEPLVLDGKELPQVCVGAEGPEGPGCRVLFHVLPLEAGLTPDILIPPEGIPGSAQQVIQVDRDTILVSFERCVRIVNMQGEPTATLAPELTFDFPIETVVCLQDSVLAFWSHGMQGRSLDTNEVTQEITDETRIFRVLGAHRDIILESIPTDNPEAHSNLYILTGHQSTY
Chain of G protein-coupled receptor kinase 5 (P34947 whole entry): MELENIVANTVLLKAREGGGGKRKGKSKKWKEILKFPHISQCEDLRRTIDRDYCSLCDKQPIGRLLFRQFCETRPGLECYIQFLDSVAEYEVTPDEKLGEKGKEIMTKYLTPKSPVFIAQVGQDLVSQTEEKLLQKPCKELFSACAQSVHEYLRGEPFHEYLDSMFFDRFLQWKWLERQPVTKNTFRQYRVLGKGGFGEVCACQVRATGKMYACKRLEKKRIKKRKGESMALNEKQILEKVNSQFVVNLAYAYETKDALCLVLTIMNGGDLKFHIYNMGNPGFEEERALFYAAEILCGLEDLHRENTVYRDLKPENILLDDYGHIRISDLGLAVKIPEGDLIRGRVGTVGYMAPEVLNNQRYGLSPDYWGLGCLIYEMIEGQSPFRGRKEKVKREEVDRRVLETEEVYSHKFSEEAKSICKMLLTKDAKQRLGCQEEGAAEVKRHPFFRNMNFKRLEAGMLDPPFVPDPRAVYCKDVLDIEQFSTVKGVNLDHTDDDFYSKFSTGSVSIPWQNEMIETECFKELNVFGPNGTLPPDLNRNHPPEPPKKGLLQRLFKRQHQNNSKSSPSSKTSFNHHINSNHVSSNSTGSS
Chain of Mitogen-activated protein kinase 14 (Q16539 whole entry): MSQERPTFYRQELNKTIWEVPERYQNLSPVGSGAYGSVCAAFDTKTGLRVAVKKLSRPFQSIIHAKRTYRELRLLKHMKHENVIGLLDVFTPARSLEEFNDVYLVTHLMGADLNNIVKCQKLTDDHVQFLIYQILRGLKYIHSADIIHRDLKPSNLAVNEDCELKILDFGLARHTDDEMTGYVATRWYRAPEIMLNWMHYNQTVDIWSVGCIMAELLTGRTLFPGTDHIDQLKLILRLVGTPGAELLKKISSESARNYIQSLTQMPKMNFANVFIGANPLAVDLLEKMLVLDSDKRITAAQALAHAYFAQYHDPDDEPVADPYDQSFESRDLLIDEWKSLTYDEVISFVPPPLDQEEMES
Chain of Nonstructural protein 1 (Q194T2 whole entry): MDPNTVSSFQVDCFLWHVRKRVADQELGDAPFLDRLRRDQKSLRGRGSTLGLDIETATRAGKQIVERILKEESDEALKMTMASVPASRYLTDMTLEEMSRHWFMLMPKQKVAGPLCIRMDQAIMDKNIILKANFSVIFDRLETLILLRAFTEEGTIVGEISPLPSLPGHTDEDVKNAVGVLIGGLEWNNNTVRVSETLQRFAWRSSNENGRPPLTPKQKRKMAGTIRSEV

## CC(=NNc1nc2ccccc2o1)c1cc2ccccc2cn1
Nonstructural protein 1
  IC50: 7.16 µM (active)
[1]
  AC50: 16.9 µM (active)
[2]
  EC50: 9.4 µM (active)
[3]
  AC50: 175 nM (active)
HEK293
  AC50: 88.7 nM (active)
Lethal factor
  EC50: 20 µM (inactive)
[4]
  EC50: 5.1 µM (active)
Hexokinase HKDC1
  EC50: 2.24 µM (active)
[5]
  AC50: 1.7 µM (active)
Hexokinase-1
  EC50: > 80 µM (inactive)

## Cc1cc(O)nc2[nH]nc(-c3cccc(-c4ccc(C#N)cc4)c3)c12
[6]
  Ki: 1 nM (active)
[7]
  Ki: > 6.31 µM (inactive)
[8]
  Ki: > 5.01 µM (inactive)
[9]
  Ki: > 3.16 µM (inactive)
[10]
  Ki: > 3.16 µM (inactive)
[11]
  Ki: > 6.31 µM (inactive)
[12]
  Ki: > 3.98 µM (inactive)
[13]
  Ki: > 3.98 µM (inactive)
[14]
  Ki: > 3.98 µM (inactive)
[15]
  Ki: > 2 µM (inactive)
[16]
  Ki: > 3.98 µM (inactive)
[17]
  Ki: > 3.98 µM (inactive)
[18]
  Ki: > 3.16 µM (inactive)
[19]
  Ki: > 2.51 µM (inactive)
[20]
  Ki: > 3.98 µM (inactive)
[21]
  Ki: > 3.98 µM (inactive)
[22]
  Ki: 3.98 µM (active)
[23]
  Ki: > 1.26 µM (inactive)
[24]
  Ki: > 5.01 µM (inactive)
[25]
  Ki: > 6.31 µM (inactive)
[26]
  Ki: > 7.94 µM (inactive)
[27]
  Ki: > 1.58 µM (inactive)
[28]
  Ki: > 3.98 µM (inactive)
[29]
  Ki: > 2.51 µM (inactive)
[30]
  Ki: > 3.16 µM (inactive)
[31]
  Ki: > 3.16 µM (inactive)
[32]
  Ki: > 3.98 µM (inactive)
[33]
  Ki: > 3.16 µM (inactive)
[34]
  Ki: > 2.51 µM (inactive)
[35]
  Ki: > 2.51 µM (inactive)
[36]
  Ki: > 2.51 µM (inactive)
[37]
  Ki: > 5.01 µM (inactive)
[38]
  Ki: > 5.01 µM (inactive)
[39]
  Ki: > 6.31 µM (inactive)
[40]
  Ki: > 2.51 µM (inactive)
[41]
  Ki: > 2.51 µM (inactive)
[42]
  Ki: > 3.98 µM (inactive)
[43]
  Ki: > 6.31 µM (inactive)
[44]
  Ki: > 2.51 µM (inactive)
[45]
  Ki: > 5.01 µM (inactive)
[46]
  Ki: > 2.51 µM (inactive)
[47]
  Ki: > 6.31 µM (inactive)
[48]
  Ki: > 3.98 µM (inactive)
[49]
  Ki: > 3.16 µM (inactive)
[50]
  Ki: > 3.16 µM (inactive)
[51]
  Ki: > 3.98 µM (inactive)
[52]
  Ki: > 5.01 µM (inactive)
Aurora kinase A
  Ki: > 1.58 µM (inactive)
